Consider one compound from article PMC5396265 (Angewandte Chemie (International Ed. in English), 2017).

This experiment deals with SPM-1 (São Paulo metallo-β-lactamase; SPM-1* for 19F-labelled variants) (Pseudomonas aeruginosa, UniProt Q8G9Q0, Y58C). The conditions noted are these: Cys58 labelled with CH2COCF3 (BTFA); meropenem up to 400 uM, 40 uM protein, 50 mM Tris pH 7.5, 9:1 H2O/D2O; product formed in situ; presence of this pair in Table S3 not seen.
Sequence of SPM-1 (São Paulo metallo-β-lactamase; SPM-1* for 19F-labelled variants) (Q8G9Q0 29-276 Y58C): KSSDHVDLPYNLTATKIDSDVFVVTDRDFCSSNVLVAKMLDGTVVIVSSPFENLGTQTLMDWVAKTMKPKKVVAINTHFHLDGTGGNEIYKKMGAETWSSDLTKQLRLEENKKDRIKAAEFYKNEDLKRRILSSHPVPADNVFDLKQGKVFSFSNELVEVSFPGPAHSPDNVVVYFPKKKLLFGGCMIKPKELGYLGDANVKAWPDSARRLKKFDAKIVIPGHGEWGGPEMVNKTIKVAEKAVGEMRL

As to `CC(O)C(C(=O)O)C1NC(C(=O)O)=C(SC2CNC(C(=O)N(C)C)C2)C1C` (stereo not shown) [hydrolyzed meropenem], the Kd (in general, a measure of binding affinity in units of concentration) was 100 ± 10 µM.
